Experimental findings from patent US20240117431A1, “STEM-CELL BASED BIOMARKER DISCOVERY” (THE REGENTS OF THE UNIVERSITY OF CALIFORNIA, priority 2020, published 2024) are described below.

For assay [1], the system named is co-culture of mCherry HEK cells and GFP-TgUPRT variant HEK cells. Put plainly: Co-culture specificity, dot blot of biotinylated total RNA (CuAAC or IEDDA). Type of assay: cell-based. The settings on record: 5 hours. The protocol:
Co-culture of HEK cells containing GFP or mCherry expression plasmids: HEK293 (5×105) cells seeded in 6-well plate. Thirty-six hour post seeding, HEK cells were transfected with 1 μg of single plasmid containing EGFP, mCherry, EGFP-TgUPRT-WT, or EGFP-TgUPRT-Mut. Twenty-four hour post transfection, transiently transfected HEK cells were trypsinized and seeded into a 5 cm plate. Equal amounts of cells (approximately 2×106 in total) where 1×10^6 cells containing GFP or GFP-TgUPRT plasmids and 1×10^6 cells containing mCherry construct) were co-cultured. Three co-culture conditions are Condition (A): mCherry and EGFP, Condition (B): mCherry and EGFP-WT-TgUPRT, and Condition (C): mCherry and EGFP-3×MT-TgUPRT (pKN-CMV-EGFP-TgUPRT-Mut16 or -Mut17). Sixteen hours post seeding, the co-cultures were treated with 5EU and 5VU for 5 hours at 200 μM and 500 μM final concentration, respectively. Cell imaging was performed to assess the overall distribution of green and red cells in each co-culture. Once imaging was done, cells were harvested and subjected to RNA isolation. Total RNA isolated from the co-culture was subjected to biotinylation by two click methods: (1) CuAAC to assess 5EU incorporation in RNA and (2) IEDDA to assess 5VU incorporation in RNA. Subsequently, biotinylated RNA was subjected to dot blot analysis. […]

Another assay addresses T1, TgUPRT (wild type) (Toxoplasma gondii, UniProt Q26998).
T1 construct: made in house; host or cells: E. coli BL21(DE3)
Put plainly: Specific activity of TgUPRT variants with uracil analog substrates in vitro (phosphoribosyltransferase, HPLC). Type of assay: biochemical. As to conditions: 0.5 μg enzyme in 80 μL, 37° C., 2-5 min, substrates 1 mM, PBS pH 7.4; DMSO none (Uracil, 5-BrVUra), 1.6% (5-EtUra, 5-AU, 5AMU), 3.2% (5-VUra). On the procedure:
Enzyme activity assay: The standard activity assay was performed by incubating 10 μL of free extract or 0.5 μg of pure His-tag enzyme with 1 mM Phosphoribosyl pyrophosphate (PRPP), 1 mM uracil, 5 mM MgCl2 in 50 mM PBS buffer pH 7.4 in a final volume of 80 μL. The reaction mixture was incubated at 37° C. for 2-5 min (300 rpm). Enzyme was inactivated by adding 80 μL of cold methanol in ice-bath and heating for 5 min at 100° C. After centrifugation at 9000×g for 5 min, samples were half-diluted with water and the NMP production was analysed by HPLC to quantitatively measure the reaction products as described below in the analytical methods. All determinations were carried out in triplicate assuming Michaelis-Menten conditions, and the maximum error was below 5%. […]
Substrate specificity studies Enzymatic synthesis of the different pyrimidine nucleoside monophosphate (NMP) derivatives was carried out by incubating 0.5 μg of pure His-tag enzyme with 1 mM PRPP, 1 mM pyrimidine base and 5 mM MgCl2 in 50 mM PBS buffer pH 7.4 (1.6-3.2% v/v DSMO). […] Subsequently, the reaction mixture was processed as described above and the NMP production was analyzed by HPLC.
Analytical methods: The production of NMPs was quantitatively measured with an ACE EXCEL 5 μm CN-ES 250×4.6 mm equilibrated with 100% trimethyl ammonium acetate at a flow rate of 0.8 mL/min. […]

T1 sequence (Q26998 whole entry): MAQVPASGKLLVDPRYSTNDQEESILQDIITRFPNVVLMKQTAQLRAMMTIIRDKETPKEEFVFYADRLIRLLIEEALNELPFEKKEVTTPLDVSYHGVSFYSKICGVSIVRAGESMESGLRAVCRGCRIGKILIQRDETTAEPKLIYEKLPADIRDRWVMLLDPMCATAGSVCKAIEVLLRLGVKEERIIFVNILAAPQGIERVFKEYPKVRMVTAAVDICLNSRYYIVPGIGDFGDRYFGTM

For the compound `C#Cc1c[nH]c(=O)[nH]c1=O` [compound 1, 5-ethynylpyrimidine-2,4(1H,3H)-dione], in assay [1] (200 μM 5EU with 500 μM 5VU), the “incorporation into RNA in the absence of TgUPRT (co-culture dot blot)” value was “detectable signal”. The “Specific Activity, TgUPRT” value on TgUPRT (wild type) is reported as “reactive”.

On to `C=Cc1c[nH]c(=O)[nH]c1=O` [compound 2, 5-Vinylpyrimidine-2,4(1H,3H)-dione], for which the “incorporation into RNA mediated by GFP-3×MT-TgUPRT (co-culture dot blot)” value in assay [1] (500 μM 5VU with 200 μM 5EU) is on record as “substantially”. Moreover, the “Specific Activity, TgUPRT” value at TgUPRT (wild type) was “undetectable activity”.
